{"source": "patent US20220315897A1", "about": "“METHOD FOR IN VITRO PRODUCTION OF HYALINE CARTILAGE TISSUE” (VANARIX SA, priority 2019, published 2022)", "type_in_all_cases": "cell-based, human", "key": {"[1]": {"system": "chondrocytes", "assay": "qPCR of ACAN and COL2A1 mRNA in chondrocytes and beads (2-step method) with WNT inhibitor", "settings": "10 μM in medium E; 2-step method after 2D and 3D culture", "protocol": "(§1) XAV939 was obtained by Sigma and used at the concentration of 10 μM for 4 days in 2D culture in medium E.\nIsolation of total RNA was performed by using the RNeasy kit from Qiagen according to the manufacturer's instructions and was measured using a spectrometer. 500 ng of total RNA was used to synthesize cDNA using the PrimeScript RT Reagent Kit (Takara) according to manufacturer's protocol.\nReal-time PCR was performed with PowerUp SYBR Green Master Mix (Applied Biosystems) using the QuantStudio 12K Flex Real-Time PCR System (Thermo Fisher Scientific) at the Genomic platform core facilities (University of Geneva). First, efficacy tests were performed for all primers for validation prior utilization. The relative level of each sample was normalized, at least, to […] (ALAS1). RT-PCR reactions were carried out, at least, in technical and biological triplicates, and the average cycle threshold (CT) values were determined.\n(§2) In order to validate the role of WNT pathway downregulation during the redifferentiation phase (medium R) (FIG. 1A), the inventors replaced medium R by medium E supplemented with 10 μM of XAV-939, a WNT pathway inhibitor for 4 days (FIG. 7G)."}, "[2]": {"system": "chondrocytes", "assay": "Safranin-O staining of GAG in beads from chondrocytes cultured in medium E + WNT inhibitor (2-step method)", "settings": "medium E + 10 μM inhibitor", "protocol": "as §1\nSafranin-O staining of cartilage spheres and native cartilage formalin-fixed paraffin-embedded samples was performed, in order to reveal glycosaminoglycans (GAG) on 5 μm paraffin slices. Slides were deparaffinated by Xylol and rehydrated by consecutive alcohol bath (concentration 100%, 95% and 70%) with a final 5-minutes distilled water bath. Then, hematoxylin staining was used for nucleus counterstaining, followed by a 5-minutes wash with running hot water. Fast Green (Sigma F7252) was used to stain the cytoplasm, then washed out with acetic acid. The slides were washed out immediately with distilled water. Safranin-O 0.1% in water bath (Sigma S2255) was applied for staining of GAGs for two and a half minutes, then washed repeatedly with distilled water. Dehydration was achieved by vigorously shaking the rack 10-20 times in alcohol baths (concentration 95% and 100%), followed by a Xylol bath until slides assembly with Eukitt resin (Batch A1113, KiNDO1500).\nas §2"}, "[3]": {"system": "WNT signaling", "assay": "Immunoblotting of chondrocytes treated with WNT signaling inhibitor", "settings": "10 μM, 4 days, 2D culture in medium E", "protocol": "as §1\nCells were lysed 30 min on ice in ice-cold RIPA buffer (Life Technologies), supplemented with phosphatase and protease inhibitors (Complete anti-protease cocktail; Roche). Protein (10 μg) was separated by SDS-PAGE (BioRad) and transferred to PVDF membranes (Amersham) Blots were probed with anti-phospho-β-catenin (Cell Signaling; 5651T), TCF-4 (Cell Signaling; 2569), Axin1 (Cell Signaling; 2087), β-actin HRP (Sigma-Aldrich) and GADPH (Cell Signaling; 2118) (1:1000) followed by the HRP-Rabbit or Mouse conjugated antibodies (1:5000).\nas §2"}}, "data": [{"smiles": "Oc1nc(-c2ccc(C(F)(F)F)cc2)nc2c1CSCC2", "note": "[XAV-939]", "values": [{"measurement": "ACAN expression", "setting": "[1]", "result": "increase"}, {"measurement": "COL2A1 expression", "setting": "[1]", "result": "increase"}, {"measurement": "GAG Safranin-O staining of beads", "setting": "[2]", "result": "presence of hyaline features"}, {"measurement": "axin (immunoblot)", "setting": "[3]", "result": "increase"}, {"measurement": "phospho-β-catenin (immunoblot)", "setting": "[3]", "result": "increase"}]}]}
